In brackets after ≈: the same amount, converted by molar mass. Read-outs that look alike come from different tables or passages of the source.
How the values were obtained:
[1] = system: C. difficile (NCTC 11204 and thirty-two clinical isolates); assay: Minimum Inhibitory Concentration (MIC) against C. difficile, microtiter plate, anaerobic, 48 hours; type: cell-based, Clostridium difficile; details: Clostridioides difficile, read-out: MIC
Protocol: (§1) Compounds 4PYcq and 4PYOfi were screened against one NCTC strain and thirty-two clinical isolates of Clostridium difficile as described below.
(§2) The antimicrobial compounds were prepared by adding 5.12 mg of each compound to 1 ml of DMSO. From each solution 100 μl was then aseptically transferred into 1 ml of sterile distilled water to give a concentration of 512 μg/ml. 100 μl of each diluted compound was then added to the first well of a sterile 96-well microliter plate. Serial dilutions were performed to give a concentration range spanning from 0 to 512 μg/ml of each compound. The microtiter plate containing the antimicrobials was left to equilibrate in an anaerobic cabinet for 3 hours before the addition of C. difficile cells. An overnight culture of C. difficile (NCTC 11204) was standardized to an OD^600 of 0.04 (approximately 10^6 CFU/ml), using Wilkins Chalgren broth and was vortexed for 60 seconds to ensure there was a uniform suspension. 100 μl of standardized culture was then added to each well of the microtiter plate, containing the equilibrated antimicrobials. The final concentrations of the antimicrobials in the wells therefore ranged from […] and the concentration of the culture was 10^5 CFU/ml in each well. The microtiter plate was incubated at 37° C., for 48 hours under anaerobic conditions. The MIC was determined as the lowest concentration of antimicrobial agent inhibiting the total growth of C. difficile cells. After incubation, the total solution from each well was aseptically spread onto a separate Wilkins chalgren agar plate. Plates were incubated for 48 hours, at 37° C., under anaerobic conditions. The number of colonies on each plate was counted after incubation and the MBC was determined as the lowest concentration of the antimicrobial agent at which 99.9% of organisms in the original inoculum were killed.

[2] = system: C. difficile (NCTC 11204 and thirty-two clinical isolates); assay: Minimum Bactericidal Concentration (MBC) against C. difficile, 99.9% kill; type: cell-based, Clostridium difficile; details: Clostridioides difficile, read-out: MBC
Protocol: as §1, §2

[3] = system: Propionibacterium acnes; assay: MIC against Propionibacterium acnes, microtitre double dilution in BHI; type: cell-based; details: Cutibacterium acnes, read-out: MIC
Protocol: Compounds 4PYcq and 4PYOfi were screened against one NCTC stain and seven clinical isolates of Propionibacterium acnes as described below.
Bacterial strains of Propionibacterium acnes, stored on beads at −20° C., were plated onto Brain heart infusion (BHI) agar plates. The cultures were incubated anaerobically for 4 days at 37° C.
Bacterial suspensions were prepared by diluting bacterial suspensions with BHI to obtain bacterial concentrations approximately 2×10^6 cfu/ml.
The test antimicrobial compounds were prepared by diluting the compound with appropriate nutrient broth to obtain correct stock solution. 50 μl of BHI were aliquoted onto the wells of the round-bottomed microtitre plate. 50 μl of the antimicrobial compounds were added onto the wells in the first column of the plate and several serial double dilutions were performed along the wells on each row. Following the series of double dilutions of the test compound the bacterial suspension were added onto each well except on the last column which served as a negative control. The lowest concentration of the test compound which inhibited bacterial growth was regarded as MIC of the compound.

[4] = system: Acinetobater spp.; assay: activity against Acinetobacter spp.; type: cell-based; details: Gram-negative bacterium
[5] = Clostridium difficile Isolate 1
[6] = Clostridium difficile Isolate 2
[7] = Clostridium difficile Isolate 3
[8] = Clostridium difficile Isolate 4
[9] = Clostridium difficile Isolate 5
[10] = Clostridium difficile Isolate 6
[11] = Clostridium difficile Isolate 7
[12] = Clostridium difficile Isolate 8
[13] = Clostridium difficile Isolate 9
[14] = Clostridium difficile Isolate 10
[15] = Clostridium difficile Isolate 11
[16] = Clostridium difficile Isolate 12
[17] = Clostridium difficile Isolate 13
[18] = Clostridium difficile Isolate 14
[19] = Clostridium difficile Isolate 15
[20] = Clostridium difficile Isolate 16
[21] = Clostridium difficile Isolate 17
[22] = Clostridium difficile Isolate 18
[23] = Clostridium difficile Isolate 19
[24] = Clostridium difficile Isolate 20
[25] = Clostridium difficile Isolate 21
[26] = Clostridium difficile Isolate 22
[27] = Clostridium difficile Isolate 23
[28] = Clostridium difficile Isolate 24
[29] = Clostridium difficile Isolate 25
[30] = Clostridium difficile Isolate 26
[31] = Clostridium difficile Isolate 27
[32] = Clostridium difficile Isolate 28
[33] = Clostridium difficile Isolate 29
[34] = Clostridium difficile Isolate 30
[35] = Clostridium difficile Isolate 31
[36] = Clostridium difficile Isolate 32
[37] = Clostridium difficile NCTC 11204

- MIC [1, 5]: 4 to 8 µg/mL (≈ 11.3 to 22.7 µM)
- MIC [1, 6]: 2 to 4 µg/mL (≈ 5.67 to 11.3 µM)
- MIC [1, 7]: 2 to 4 µg/mL (≈ 5.67 to 11.3 µM)
- MIC [1, 8]: 2 to 4 µg/mL (≈ 5.67 to 11.3 µM)
- MIC [1, 9]: 2 to 4 µg/mL (≈ 5.67 to 11.3 µM)
- MIC [1, 10]: 2 to 4 µg/mL (≈ 5.67 to 11.3 µM)
- MIC [1, 11]: 4 to 8 µg/mL (≈ 11.3 to 22.7 µM)
- MIC [1, 12]: 4 to 8 µg/mL (≈ 11.3 to 22.7 µM)
- MIC [1, 13]: 4 to 8 µg/mL (≈ 11.3 to 22.7 µM)
- MIC [1, 14]: 2 to 4 µg/mL (≈ 5.67 to 11.3 µM)
- MIC [1, 15]: 2 to 4 µg/mL (≈ 5.67 to 11.3 µM)
- MIC [1, 16]: 4 to 8 µg/mL (≈ 11.3 to 22.7 µM)
- MIC [1, 17]: 4 to 8 µg/mL (≈ 11.3 to 22.7 µM)
- MIC [1, 18]: 4 to 8 µg/mL (≈ 11.3 to 22.7 µM)
- MIC [1, 19]: 4 to 8 µg/mL (≈ 11.3 to 22.7 µM)
- MIC [1, 20]: 4 to 8 µg/mL (≈ 11.3 to 22.7 µM)
- MIC [1, 21]: 2 to 4 µg/mL (≈ 5.67 to 11.3 µM)
- MIC [1, 22]: 2 to 4 µg/mL (≈ 5.67 to 11.3 µM)
- MIC [1, 23]: 4 to 8 µg/mL (≈ 11.3 to 22.7 µM)
- MIC [1, 24]: 2 to 4 µg/mL (≈ 5.67 to 11.3 µM)
- MIC [1, 25]: 4 to 8 µg/mL (≈ 11.3 to 22.7 µM)
- MIC [1, 26]: 2 to 4 µg/mL (≈ 5.67 to 11.3 µM)
- MIC [1, 27]: 2 to 4 µg/mL (≈ 5.67 to 11.3 µM)
- MIC [1, 28]: 4 to 8 µg/mL (≈ 11.3 to 22.7 µM)
- MIC [1, 29]: 4 to 8 µg/mL (≈ 11.3 to 22.7 µM)
- MIC [1, 30]: 4 to 8 µg/mL (≈ 11.3 to 22.7 µM)
- MIC [1, 31]: 4 to 8 µg/mL (≈ 11.3 to 22.7 µM)
- MIC [1, 32]: 4 to 8 µg/mL (≈ 11.3 to 22.7 µM)
- MIC [1, 33]: 4 to 8 µg/mL (≈ 11.3 to 22.7 µM)
- MIC [1, 34]: 2 to 4 µg/mL (≈ 5.67 to 11.3 µM)
- MIC [1, 35]: 4 to 8 µg/mL (≈ 11.3 to 22.7 µM)
- MIC [1, 36]: 4 to 8 µg/mL (≈ 11.3 to 22.7 µM)
- MIC [1, 37]: 4 to 8 µg/mL (≈ 11.3 to 22.7 µM)
- MIC ([3]; NCTC737, P. acnes NCTC 737): 64 to 128 µg/mL (≈ 182 to 363 µM)
- MIC ([3]; P. acnes Isolate 1): 4 to 8 µg/mL (≈ 11.3 to 22.7 µM)
- MIC ([3]; P. acnes Isolate 2): 32 to 64 µg/mL (≈ 90.8 to 182 µM)
- MIC ([3]; P. acnes Isolate 3): 2 to 4 µg/mL (≈ 5.67 to 11.3 µM)
- MIC ([3]; P. acnes Isolate 4): 128 to 256 µg/mL (≈ 363 to 726 µM)
- MIC ([3]; P. acnes Isolate 5): 64 to 128 µg/mL (≈ 182 to 363 µM)
- MIC ([3]; P. acnes Isolate 6): 64 to 128 µg/mL (≈ 182 to 363 µM)
- MIC ([3]; P. acnes Isolate 7): > 256 µg/mL
SMILES: CC(C)(C)c1cc(/C=N/N=C(\N)c2ccncc2)c(O)c(C(C)(C)C)c1 [Compound 4PYcq]
- MBC [2, 5]: 4 to 8 µg/mL (≈ 11.3 to 22.7 µM)
- MBC [2, 6]: 4 to 8 µg/mL (≈ 11.3 to 22.7 µM)
- MBC [2, 7]: 2 to 4 µg/mL (≈ 5.67 to 11.3 µM)
- MBC [2, 8]: 2 to 4 µg/mL (≈ 5.67 to 11.3 µM)
- MBC [2, 9]: 2 to 4 µg/mL (≈ 5.67 to 11.3 µM)
- MBC [2, 10]: 2 to 4 µg/mL (≈ 5.67 to 11.3 µM)
- MBC [2, 11]: 4 to 8 µg/mL (≈ 11.3 to 22.7 µM)
- MBC [2, 12]: 4 to 8 µg/mL (≈ 11.3 to 22.7 µM)
- MBC [2, 13]: 4 to 8 µg/mL (≈ 11.3 to 22.7 µM)
- MBC [2, 14]: 4 to 8 µg/mL (≈ 11.3 to 22.7 µM)
- MBC [2, 15]: 2 to 4 µg/mL (≈ 5.67 to 11.3 µM)
- MBC [2, 16]: 4 to 8 µg/mL (≈ 11.3 to 22.7 µM)
- MBC [2, 17]: 4 to 8 µg/mL (≈ 11.3 to 22.7 µM)
- MBC [2, 18]: 4 to 8 µg/mL (≈ 11.3 to 22.7 µM)
- MBC [2, 19]: 4 to 8 µg/mL (≈ 11.3 to 22.7 µM)
- MBC [2, 20]: 4 to 8 µg/mL (≈ 11.3 to 22.7 µM)
- MBC [2, 21]: 4 to 8 µg/mL (≈ 11.3 to 22.7 µM)
- MBC [2, 22]: 2 to 4 µg/mL (≈ 5.67 to 11.3 µM)
- MBC [2, 23]: 4 to 8 µg/mL (≈ 11.3 to 22.7 µM)
- MBC [2, 24]: 2 to 4 µg/mL (≈ 5.67 to 11.3 µM)
- MBC [2, 25]: 4 to 8 µg/mL (≈ 11.3 to 22.7 µM)
- MBC [2, 26]: 2 to 4 µg/mL (≈ 5.67 to 11.3 µM)
- MBC [2, 27]: 2 to 4 µg/mL (≈ 5.67 to 11.3 µM)
- MBC [2, 28]: 4 to 8 µg/mL (≈ 11.3 to 22.7 µM)
- MBC [2, 29]: 4 to 8 µg/mL (≈ 11.3 to 22.7 µM)
- MBC [2, 30]: 8 to 16 µg/mL (≈ 22.7 to 45.4 µM)
- MBC [2, 31]: 4 to 8 µg/mL (≈ 11.3 to 22.7 µM)
- MBC [2, 32]: 4 to 8 µg/mL (≈ 11.3 to 22.7 µM)
- MBC [2, 33]: 4 to 8 µg/mL (≈ 11.3 to 22.7 µM)
- MBC [2, 34]: 2 to 4 µg/mL (≈ 5.67 to 11.3 µM)
- MBC [2, 35]: 4 to 8 µg/mL (≈ 11.3 to 22.7 µM)
- MBC [2, 36]: 8 to 16 µg/mL (≈ 22.7 to 45.4 µM)
- MBC [2, 37]: 4 to 8 µg/mL (≈ 11.3 to 22.7 µM)
- activity against Acinetobater spp. (in words) [4]: inactive

— US20080096894A1, “Anti-Bacterial Compounds” (ASTON UNIVERSITY, priority 2005, published 2008)
